| melting point [°C] | SMILES |
| --- | --- |
| > 400 | Cc1ccc(NC(=N)NCc2ccc3c(c2)CN(C2CCC(=O)NC2=O)C3=O)cc1Cl.Cl (stereo not drawn) |
| 265 to 267 | CC(=O)Nc1ccc(NC(=O)NCc2ccc3c(c2)CN(C2CCC(=O)NC2=O)C3=O)cc1 (stereo not drawn) [Example 5.13, N-(4-{3-[2-(2,6-Dioxo-piperidin-3-yl)-1-oxo-2,3-dihydro-1H-isoindol-5-ylmethyl]-ureido}-phenyl)-acetamide] |
| 325 to 327 | Cc1ccc(N/C(=N\C#N)NCc2ccc3c(c2)CN(C2CCC(=O)NC2=O)C3=O)cc1Cl (stereo not drawn) [Example 5.30, N″-(3-Chloro-4-methyl-phenyl)-N′-[2-(2,6-dioxo-piperidin-3-yl)-1-oxo-2,3-dihydro-1H-isoindol-5-ylmethyl]-N-cyano-guanidine] |
| 190 to 192 | O=C1CCC(N2Cc3cc(CNC(=O)Nc4ccc(-c5ncc[nH]5)cc4)ccc3C2=O)C(=O)N1 (stereo not drawn) [Example 5.31, 1-[2-(2,6-Dioxo-piperidin-3-yl)-1-oxo-2,3-dihydro-1H-isoindol-5-ylmethyl]-3-[4-(1H-imidazol-2-yl)-phenyl]-urea] |
| 275 to 277 | O=C1CCC(N2Cc3cc(CNC(=O)Nc4ccc(Cl)c(-c5nc6ccccc6[nH]5)c4)ccc3C2=O)C(=O)N1 (stereo not drawn) [Example 5.32, 1-[3-(1H-Benzoimidazol-2-yl)-4-chloro-phenyl]-3-[2-(2,6-dioxo-piperidin-3-yl)-1-oxo-2,3-dihydro-1H-isoindol-5-ylmethyl]-urea] |
| 195 to 197 | NC(=O)[C@H]1CC[C@@H](NC(=O)NCc2ccc3c(c2)CN(C2CCC(=O)NC2=O)C3=O)CC1 (stereo partly drawn) [Example 5.43, 4-{3-[2-(2,6-Dioxo-piperidin-3-yl)-1-oxo-2,3-dihydro-1H-isoindol-5-ylmethyl]-ureido}-cyclohexanecarboxylic acid amide] |
| 230 to 232 | CC(C)(C)OC(=O)N1CCc2cc(NC(=O)NCc3ccc4c(c3)CN(C3CCC(=O)NC3=O)C4=O)ccc2C1 (stereo not drawn) [Example 5.46, 6-{3-[2-(2,6-Dioxo-piperidin-3-yl)-1-oxo-2,3-dihydro-1H-isoindol-5-ylmethyl]-ureido}-3,4-dihydro-1H-isoquinoline-2-carboxylic acid tert-butyl ester] |
| 200 to 202 | CC(NC(=O)NCc1ccc2c(c1)CN(C1CCC(=O)NC1=O)C2=O)c1ccc(Cl)c(Cl)c1 (stereo not drawn) [Example 5.60, 1-[1-(3,4-Dichloro-phenyl)-ethyl]-3-[2-(2,6-dioxo-piperidin-3-yl)-1-oxo-2,3-dihydro-1H-isoindol-5-ylmethyl]-urea] |
| 188 to 190 | COCCOCCOc1ccc(NC(=O)NCc2ccc3c(c2)CN(C2CCC(=O)NC2=O)C3=O)cc1Cl (stereo not drawn) [Example 5.61, 1-(3-Chloro-4-(2-(2-methoxyethoxy)ethoxy)phenyl)-3-((2-(2,6-dioxopiperidin-3-yl)-1-oxoisoindolin-5-yl)methyl)urea] |
